From patent US4105659A, “1,2,3,4,5,6-Hexahydro-2,6-methano-3-benzazocines” (Sterling Drug Inc., priority 1964, dated 1978) come the findings set out here.

Each structure is given as a SMILES string. Values after ≈ are worked out from the molar mass of the structure shown.

Series [1] can be described thus: Support of morphine addiction in stabilized morphine addicts.
Series [2] can be described thus: Clinical analgesia in human subjects. The series is classed as in vivo. Here is the method:
In human subjects, however, the compounds of Formulas I and II are valuable and effective agents for producing analgesia when administered in the general range of about 10 to 500 mg. per 70 kg. of subject weight, the dosage depending of course on the particular compound, the mode of administration, and the like. The following clinical results which were obtained in human subjects are illustrative. For oral administration the free base was used, and for parenteral (usually intramuscular) administration an aqueous solution of the lactate salt was used; the dosages are expressed in each instance in terms of milligrams of base per 70 kilograms of body weight of the human subject.

Series [3] in a line: Solubility, pH of solution and precipitation on pH adjustment or dilution. It counts as physicochemical. As to the method: A. A mixture of 8.7 g. of racemic cis 1,2,3,4,5,6-hexahydro-6,11-dimethyl-8-hydroxy-2,6-methano-3-benzazocine (which is also known as racemic cis 2'-hydroxy-5,9-dimethyl-6,7-benzomorphan), 6.0 g of 1-bromo-3-methyl-2-butene, 5.0 g. of sodium bicarbonate, and 125 ml. of N,N-dimethylformamide was stirred and refluxed for approximately 41/2 hours. The reaction mixture was then filtered, and the solid on the filter was washed with ethanol. The filtrate and the wash liquor were combined, concentrated under reduced pressure, and then extracted with chloroform. The chloroform extract was concentrated under reduced pressure to yield a syrup which weighed 15.8 g. This syrup was dissolved in 120 ml. of diethyl ether and the resulting solution was filtered to remove approximately one-half gram of a brown amorphous solid. The filtrate was extracted with a mixture of 5 ml. of concentrated hydrochloric acid and 20 ml. of water. To the extract there was added 5 ml. of concentrated ammonium hydroxide solution and ice. A pale tan syrup separated from solution and after stirring, this syrup solidified. The resulting pale tan solid was collected and dried; it weighed 10.6 g. After two recrystallizations from a mixture of methyl alcohol and water, with charcoaling, this solid weighed 8.2 g. and melted at 145°-147° C. The product thus obtained was racemic cis 1,2,3,4,5,6-hexahydro-3-(3-methyl-2-butenyl)-6,11-dimethyl-8-hydroxy-2,6-methano-3-benzazocine (Formula II: Y = --CH2 --CH=C(CH3)2; R^3 = --H), having the molecular formula C19 H27 NO. This product was soluble in a mixture of 0.35 ml. of N/2 hydrochloric acid and 0.15 ml. of water to the extent of 10 percent, the pH of the 1 percent solution being 2.80; and when the pH of the 1 percent solution was gradually raised by addition of N/10 sodium hydroxide solution, a precipitate formed at pH 5.4. When the base was converted to the hydrochloride and was then regenerated from this salt it melted at 151°-153° C. The hydrochloride of this base melted at 245°-247° C. (dec.). and the cyclohexylsulfamate of this base melted at 163°-166° C. The base formed a grayish-yellowtannate.
The racemic trans product was converted to its hydrobromide, having the molecular formula C19 H27 NO·HBr, which was obtained as white needles which melted at 240°-241° C.
The dextro trans product was converted to its hydrochloride, having the molecular formula C19 H27 NO·HCl, which was obtained as white crystals which melted at 254°-255° C.
The levo trans product was converted to its hydrochloride, having the molecular formula C19 H27 NO·HCl, which was obtained as white crystals which melted at 254°-255° C. (dec.); this hydrochloride was soluble in water to the extent of 5 percent, the pH of a 1 percent aqueous solution being 5.7, a precipitate being formed when the 1 percent aqueous solution was adjusted to 7.0 by addition of N/10 sodium hydroxide solution.
A. A mixture of 9.25 g. of racemic cis 1,2,3,4,5,6-hexahydro-6-ethyl-11-methyl-8-hydroxy-2,6-methano-3-benzazocine, 6.0 g. of 1-bromo-3-methyl-2-butene, 125 ml. of N,N-dimethylformamide, and 5.0 g. of sodium bicarbonate was stirred and refluxed for approximately 41/2 hours. The reaction mixture was then filtered, and the solid collected on the filter was washed with ethanol. The filtrate and the wash liquor were combined and concentrated under reduced pressure. To the resulting residue there was added 50 ml. of diethyl ether, and the mixture was filtered. Approximately 0.6 g. of solid was collected on the filter, and 8.2 g. of brown solid separated from the filtrate and was collected by filtration. These two crops of solid (8.8 g.) were combined, 25 ml. of methanol was added, and the mixture was boiled. Only a small portion of the solid dissolved. This mixture was mixed with 25 ml. of water and chilled. The mixture was filtered to collect 8.3 g. of pale tan solid which melted at 156°-158° C. […]

Series [4] relates to analgesic effect of morphine sulfate. In words: Antagonism of morphine analgesia, modified D'Amour-Smith test. As to conditions: Rattus norvegicus, sc, read-out: dosage of antagonist which reduced the analgesic effect of morphine by approximately 50 per cent.
The subject of series [5] is analgesic effect of meperidine hydrochloride. In words: Antagonism of meperidine analgesia, modified D'Amour-Smith test. As to conditions: Rattus norvegicus, sc, read-out: dosage of antagonist which reduced the analgesic effect of meperidine by approximately 50 per cent.

Consider `CC(C)=CCN1CC[C@@]2(C)c3cc(O)ccc3C[C@@H]1[C@@H]2C` (relative stereo) [4A (base), racemic cis 1,2,3,4,5,6-hexahydro-3-(3-methyl-2-butenyl)-6,11-dimethyl-8-hydroxy-2,6-methano-3-benzazocine], for which, in series [1], the “support of morphine addiction” value is listed as “did not support morphine addiction”. For the same molecule, the “analgesia in human subjects” value was “effective and satisfactory analgesia” in series [2] (orally, 50mg./70 kg. and 100 mg./70 kg.); “effective and satisfactory analgesia” in series [2] (parenterally, 10 mg./70 kg. and 60 mg./70 kg.). Moreover, the “dose approximately equivalent to 10 mg. of morphine sulfate as an analgesic” value in series [2] (parenterally in humans) was about 20 mg. In addition, in series [3] (1 percent solution in dilute hydrochloric acid), the “pH of the 1 percent solution” value stood at 2.80. Besides, the “pH at which a precipitate formed” value in series [3] (1 percent solution, addition of N/10 sodium hydroxide) worked out at 5.4. Besides, in series [3] (dilute hydrochloric acid, mixture of 0.35 ml. of N/2 hydrochloric acid and 0.15 ml. of water, read-out: solubility in dilute hydrochloric acid), the solubility amounted to 100 mg/mL (≈ 350 mM). In addition, the values for the ED50 in series [4] and in series [5] were 9 mg/kg and 3.9 mg/kg, respectively.
